Where a name gives a salt, the structure may show the parent alone. Read-outs that look alike come from different tables or passages of the source.
What was measured:
[1] = target: dopamine D2 receptor (Rattus norvegicus, UniProt P61169); test: Radioligand competition assay, D2 receptor, rat corpus striatum membranes, [3H]nemonapride; assay type: binding
Procedure: (§1) Affinity of N-alkyl R(−)-11-hydroxyaporphines (14, 4, 5, 15, 23, 24) and their esters (17-19) for the dopamine D1 and D2 receptors was determined by radioligand competition assays, using membrane preparations from dopamine-rich corpus striatum (caudatoputamen) tissue from rat forebrain. Adult male Sprague-Dawley rats were sacrificed by decapitation following carbon dioxide narcosis. Brains were quickly removed and dissected on ice. Tissue was homogenized in 50 mM Tris-HCl buffer (pH 7.4) containing 150 mM NaCl, washed twice and resuspended in the same buffer. For the D1 dopamine receptor assay, homogenate was incubated with 0.3 nM [^3H]SCH-23390 (Perkin Elmer; Boston, Mass.) for 30 minutes at 30° C. Non-specific binding was defined with 10 μM cis-flupenthixol. See Faedda et al., Biochem. Pharmacol. 38:473 (1989). For the D2 receptor assay, homogenate was incubated with […] [^3H]nemonapride (Perkin Elmer, Boston, Mass.) for 90 minutes at 30° C. Nonspecific binding was defined with 10 μM haloperidol. See Baldessarini et al., Mol. Pharmacol. 42:856 (1992). Experiments were carried out in triplicate.

[2] = target: T1, dopamine D1 receptor (Rattus norvegicus, UniProt P18901); test: Radioligand competition assay, D1 receptor, rat corpus striatum membranes, [3H]SCH-23390; assay type: binding
T1 construct: membrane preparations from dopamine-rich corpus striatum (caudatoputamen) tissue from rat forebrain; from tissue; host or cells: corpus striatum (caudatoputamen) of adult male Sprague-Dawley rats
Procedure: as §1

[3] = target: T2, human D1 receptor (Homo sapiens, UniProt P21728); test: Affinity at human D1 receptor in transfected cell membranes, tritium-labeled SCH-23390; assay type: binding
T2 construct: expressed in transfected cells
Procedure: (§2) Affinity data were obtained in cells transfected with human D1, D2, or D3 receptor cDNA. Cells were grown and harvested using standard procedures.

[4] = target: T3, human D3 receptor (Homo sapiens, UniProt P35462); test: Affinity at human D3 receptor in transfected cell membranes, tritium-labeled 7-OH-DPAT; assay type: binding
T3 construct: expressed in transfected cells
Procedure: as §2

[5] = tested on: adult male Sprague-Dawley rats; test: Stimulation of motor activity (photobeam activity monitoring), in vivo potency and oral bioavailability; parameters: species or system rat; details: for Induced motor activation, Response (total of electronically monitored locomotor responses, scored over time): relative to 4 μmol/kg i.p. R(−)-apomorphine = 1
Procedure: In vivo potency and oral bioavailability of the aporphine derivatives were determined by measuring stimulation of motor activity in adult male Sprague-Dawley rats using a photobeam activity monitoring system (San Diego Instruments; San Diego, Calif.). See Zhang et al., Neuropsychopharmacology 25:624 (2001). The number of animal subjects in each experimental group ranged from 4 to 8. Oral delivery of test agents was achieved using a permanently surgically pre-implanted polyethylene gastric tube to avoid stress associated with conventional oral intubation. For this surgery, rates were anesthetized with 60 mg/kg sodium pentobarbital intraperitoneally. PE50 tubing was inserted and sutured to the stomach, and led subcutaneously to a point of access on the back of the neck, where it was sutured in place. Animals were allowed two weeks to recover prior to behavior testing.

[6] = target: T4, human D2 receptor (Homo sapiens, UniProt P14416); test: Affinity at human D2 receptor in transfected cell membranes, tritium-labeled nemonapride; assay type: binding
T4 construct: expressed in transfected cells
Procedure: as §2

[7] = following a single dose; cited from earlier work
[8] = rat striatal membranes, [3H]nemonapride, 90 minutes at 30° C, read-out: Affinity at rat dopamine receptors, D2
[9] = transfected cell membranes, read-out: Affinity at human receptors, D2
[10] = transfected cell membranes, read-out: Affinity at human receptors, D1
[11] = rat striatal membranes, 0.3 nM [3H]SCH-23390, 30 minutes at 30° C, read-out: Affinity at rat dopamine receptors, D1
[12] = transfected cell membranes, read-out: Affinity at human receptors, D3

T4 sequence (P14416 whole entry): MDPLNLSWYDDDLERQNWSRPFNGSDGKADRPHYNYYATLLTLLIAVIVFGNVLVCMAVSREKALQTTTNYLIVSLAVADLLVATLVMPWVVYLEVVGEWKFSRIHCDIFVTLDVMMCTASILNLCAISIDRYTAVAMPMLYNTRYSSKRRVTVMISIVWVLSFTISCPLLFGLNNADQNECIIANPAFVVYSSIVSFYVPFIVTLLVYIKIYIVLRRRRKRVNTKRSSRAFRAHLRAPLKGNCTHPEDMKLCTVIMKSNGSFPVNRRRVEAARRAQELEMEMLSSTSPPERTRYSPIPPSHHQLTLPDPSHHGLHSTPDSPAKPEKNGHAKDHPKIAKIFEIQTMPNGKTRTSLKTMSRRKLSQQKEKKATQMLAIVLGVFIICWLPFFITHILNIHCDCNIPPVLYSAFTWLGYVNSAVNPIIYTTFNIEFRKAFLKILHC
T1 sequence (P18901 whole entry): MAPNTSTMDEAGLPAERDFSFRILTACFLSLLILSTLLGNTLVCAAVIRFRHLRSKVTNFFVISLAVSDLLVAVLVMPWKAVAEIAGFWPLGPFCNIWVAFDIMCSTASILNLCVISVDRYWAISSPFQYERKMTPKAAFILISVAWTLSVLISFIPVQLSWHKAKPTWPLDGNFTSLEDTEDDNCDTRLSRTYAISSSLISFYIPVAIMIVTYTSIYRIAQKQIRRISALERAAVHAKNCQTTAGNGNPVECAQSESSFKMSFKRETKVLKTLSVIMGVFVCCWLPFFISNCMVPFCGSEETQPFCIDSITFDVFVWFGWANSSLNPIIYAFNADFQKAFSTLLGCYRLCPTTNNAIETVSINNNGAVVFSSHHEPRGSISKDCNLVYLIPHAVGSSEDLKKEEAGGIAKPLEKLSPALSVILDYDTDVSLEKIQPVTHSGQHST
T3 sequence (P35462 whole entry): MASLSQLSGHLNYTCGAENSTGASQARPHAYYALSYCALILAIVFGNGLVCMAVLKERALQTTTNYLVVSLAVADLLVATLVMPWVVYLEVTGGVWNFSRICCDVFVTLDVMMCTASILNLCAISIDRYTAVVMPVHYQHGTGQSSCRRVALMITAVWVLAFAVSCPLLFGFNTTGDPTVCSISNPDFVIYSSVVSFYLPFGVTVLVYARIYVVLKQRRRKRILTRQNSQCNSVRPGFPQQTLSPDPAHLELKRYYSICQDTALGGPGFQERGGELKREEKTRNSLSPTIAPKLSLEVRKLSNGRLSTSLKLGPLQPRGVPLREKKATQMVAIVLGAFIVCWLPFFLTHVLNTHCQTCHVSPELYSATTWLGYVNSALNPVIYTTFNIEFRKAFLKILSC
Chain of dopamine D2 receptor (P61169 1-415 isoform P61169-2): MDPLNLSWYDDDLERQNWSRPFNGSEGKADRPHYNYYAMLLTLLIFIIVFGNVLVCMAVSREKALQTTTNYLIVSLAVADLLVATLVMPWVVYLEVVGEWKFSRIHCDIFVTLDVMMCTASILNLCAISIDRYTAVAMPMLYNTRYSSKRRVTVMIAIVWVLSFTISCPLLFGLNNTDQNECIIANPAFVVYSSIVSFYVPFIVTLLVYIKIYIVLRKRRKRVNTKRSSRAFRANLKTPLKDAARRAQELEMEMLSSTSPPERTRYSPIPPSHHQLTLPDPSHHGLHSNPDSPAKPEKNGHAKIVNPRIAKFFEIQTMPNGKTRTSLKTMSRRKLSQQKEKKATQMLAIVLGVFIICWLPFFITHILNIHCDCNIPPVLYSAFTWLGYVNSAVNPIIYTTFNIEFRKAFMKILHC
T2 sequence (P21728 whole entry): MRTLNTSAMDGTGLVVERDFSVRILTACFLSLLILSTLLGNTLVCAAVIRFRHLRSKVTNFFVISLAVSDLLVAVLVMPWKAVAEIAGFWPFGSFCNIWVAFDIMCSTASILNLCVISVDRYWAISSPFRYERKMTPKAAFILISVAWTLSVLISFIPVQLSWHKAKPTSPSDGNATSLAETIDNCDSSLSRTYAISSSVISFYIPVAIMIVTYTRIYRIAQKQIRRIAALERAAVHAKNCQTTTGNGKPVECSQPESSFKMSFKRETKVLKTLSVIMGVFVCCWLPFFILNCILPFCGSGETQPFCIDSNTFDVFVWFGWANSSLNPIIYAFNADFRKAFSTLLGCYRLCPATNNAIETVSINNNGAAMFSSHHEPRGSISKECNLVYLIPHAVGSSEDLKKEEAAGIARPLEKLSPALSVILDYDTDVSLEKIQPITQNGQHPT

`CCCN1CCc2cc(F)cc3c2[C@H]1Cc1cccc(O)c1-3` [Compound 23, R(−)-2-fluoro-N-propyl-11-hydroxynoraporphine] gave a Ki [1, 8] of 203 ± 37 nM and a Ki [2] of 12.6 ± 0.6 nM.
With `CCCN1CCc2cccc3c2[C@H]1Cc1cccc(O)c1-3` [Compound 4, R(−)—N-propyl-11-hydroxynoraporphine] the Ki [3] was 1280 ± 209 nM, the Ki [4] was 4.89 ± 1.06 nM and the “Induced motor activation, Response (total of electronically monitored locomotor responses, scored over time)” value ([5]; 4 μmol/kg, gastric) was 0. The “Induced motor activation, Duration” value ([5]; 4 μmol/kg, peritoneal) was 8 h, the “Induced motor activation, Response (total of electronically monitored locomotor responses, scored over time)” value ([5]; 4 μmol/kg, peritoneal) was 24 and the “Induced motor activation, Duration” value ([5]; 20 μmol/kg, gastric) was 18 h. The “Induced motor activation, Response (total of electronically monitored locomotor responses, scored over time)” value ([5]; 20 μmol/kg, gastric) was 76.
`C=CCN1CCc2cccc3c2[C@H]1Cc1cccc(O)c1-3` (as salt: hydrochloride) [Compound 5, R(−)-N-allyl-11-hydroxynoraporphine] gave a melting point of 186 to 190 °C.
Compound `C=CCN1CCc2cccc3c2[C@H]1Cc1cccc(O)c1-3` [Compound 5, R(−)-N-allyl-11-hydroxynoraporphine] has a Ki [1] of 41.1 ± 11 nM, a Ki [6] of 113 ± 17 nM and a Ki [3] of 944 ± 149 nM. The Ki [2] was 397 ± 51 nM.
Work on `CCN1CCc2cccc3c2[C@H]1Cc1cccc(O)c1-3` [Compound 14, R(−)—N-ethyl-11-hydroxynoraporphine] yielded a Ki [1] of 88 ± 15.5 nM, a Ki [6, 9] of 283 ± 53 nM and a Ki [3, 10] of 362 ± 38 nM. For the same compound, the Ki [4] was 36.7 ± 4 nM, the “Induced motor activation, Response (total of electronically monitored locomotor responses, scored over time)” value ([5]; 4 μmol/kg, gastric) was 0 and the “Induced motor activation, Duration” value ([5]; 4 μmol/kg, peritoneal) was 4 h. The “Induced motor activation, Response (total of electronically monitored locomotor responses, scored over time)” value ([5]; 4 μmol/kg, peritoneal) was 12, the “Induced motor activation, Response (total of electronically monitored locomotor responses, scored over time)” value ([5]; 20 μmol/kg, gastric) was 0 and the Ki [2, 11] was 177 ± 13 nM.
For `CN1CCc2cc(O)cc3c2[C@H]1Cc1cccc(O)c1-3` [Compound 24, R(−)-2,11-dihydroxyaporphine], the Ki [1] was 86 ± 14.2 nM and the Ki [2, 11] was 122 ± 8 nM.
With `CC/C=C\C/C=C\C/C=C\C/C=C\C/C=C\C/C=C\CCC(=O)Oc1cccc2c1-c1cccc3c1[C@@H](C2)N(CCC)CC3` [Compound 17, R(−)-11-O-docosahexaenoyl-N-propyl-noraporphine] the “Induced motor activation, Response (total of electronically monitored locomotor responses, scored over time)” value ([5]; 4 μmol/kg, cutaneous) was 0, the “Induced motor activation, Response (total of electronically monitored locomotor responses, scored over time)” value ([5]; 4 μmol/kg, gastric) was 0 and the “Induced motor activation, Duration” value ([5]; 20 μmol/kg, cutaneous) was 6 h. For the same compound, the “Induced motor activation, Response (total of electronically monitored locomotor responses, scored over time)” value ([5]; 20 μmol/kg, cutaneous) was 5, the “Induced motor activation, Duration” value ([5]; 20 μmol/kg, gastric) was 12 h and the “Induced motor activation, Response (total of electronically monitored locomotor responses, scored over time)” value ([5]; 20 μmol/kg, gastric) was 75.
Compound `CN1CCc2cccc3c2[C@H]1Cc1cccc(O)c1-3` [Compound 3, R(−)-11-OH-aporphine, reference compound] has a Ki [1, 8] of 108 ± 10.8 nM and a Ki [2, 11] of 26.5 ± 1.03 nM.
In the case of `CN1CCc2cccc3c2[C@H]1Cc1ccc(O)c(O)c1-3` [Compound 1, R(−)-apomorphine], the “effects last for” value [7] is given as 40 to 60 min and the onset of action [7] is given as 5 to 15 min.
In the case of `CCCN1CCc2cccc3c2[C@H]1Cc1cccc(OC(C)=O)c1-3` [Compound 19, R(−)-11-O-acetyl-N-propyl-noraporphine], the Ki [1, 8] is reported as 72.3 ± 6.8 nM, the “Induced motor activation, Response (total of electronically monitored locomotor responses, scored over time)” value ([5]; 4 μmol/kg, gastric) is reported as 0 and the “Induced motor activation, Duration” value ([5]; 4 μmol/kg, peritoneal) is reported as 8 h. For the same compound, the “Induced motor activation, Response (total of electronically monitored locomotor responses, scored over time)” value ([5]; 4 μmol/kg, peritoneal) was 12, the “Induced motor activation, Duration” value ([5]; 20 μmol/kg, gastric) was 16 h and the “Induced motor activation, Response (total of electronically monitored locomotor responses, scored over time)” value ([5]; 20 μmol/kg, gastric) was 168.
In the case of `CCCCC(=O)Oc1cccc2c1-c1cccc3c1[C@@H](C2)N(CCC)CC3` [Compound 18, R(−)-11-O-valeryl-N-propyl-noraporphine], the Ki ([1]; read-out: Affinity at rat dopamine receptors, D2) is reported as 340 ± 65 nM, the “Induced motor activation, Response (total of electronically monitored locomotor responses, scored over time)” value ([5]; 4 μmol/kg, gastric) is reported as 0 and the “Induced motor activation, Duration” value ([5]; 4 μmol/kg, peritoneal) is reported as 12 h. For the same compound, the “Induced motor activation, Response (total of electronically monitored locomotor responses, scored over time)” value ([5]; 4 μmol/kg, peritoneal) was 53, the “Induced motor activation, Duration” value ([5]; 20 μmol/kg, gastric) was 14 h and the “Induced motor activation, Response (total of electronically monitored locomotor responses, scored over time)” value ([5]; 20 μmol/kg, gastric) was 99.
For `CCCN1CCc2cccc3c2[C@H]1Cc1ccc(O)c(O)c1-3` [Compound 2, R(−)-N-propylnorapomorphine, reference compound], the Ki [4, 12] was 0.51 ± 0.07 nM, the “Induced motor activation, Response (total of electronically monitored locomotor responses, scored over time)” value ([5]; 4 μmol/kg, gastric) was 0 and the “Induced motor activation, Duration” value ([5]; 4 μmol/kg, peritoneal) was 8 h. For the same compound, the “Induced motor activation, Response (total of electronically monitored locomotor responses, scored over time)” value ([5]; 4 μmol/kg, peritoneal) was 12, the “Induced motor activation, Duration” value ([5]; 20 μmol/kg, gastric) was 14 h and the “Induced motor activation, Response (total of electronically monitored locomotor responses, scored over time)” value ([5]; 20 μmol/kg, gastric) was 68.
Work on `CCN1CCc2cccc3c2[C@H]1Cc1cccc(O)c1-3` (as salt: hydrochloride) [Compound 14, R(−)—N-ethyl-11-hydroxynoraporphine] yielded a melting point of 250 °C.
With `Oc1cccc2c1-c1cccc3c1[C@@H](C2)N(CC1CC1)CC3` [Compound 15, R(−)-N-cyclopropylmethyl-11-hydroxynoraporphine] the Ki [1] was 96.3 ± 15.8 nM, the Ki [6, 9] was 436 ± 39 nM and the Ki [4] was 30.1 ± 3.5 nM. It also gave a Ki [2, 11] of 272 ± 18 nM.
`CCCN1CCc2cc(F)cc3c2[C@H]1Cc1ccc(O)c(O)c1-3` [Compound 22, R(−)-2-fluoro-N-n-propylnorapomorphine, reference compound] gave a Ki [1, 8] of 17.2 ± 1.2 nM, a Ki [6, 9] of 46 ± 2.6 nM and a Ki [3, 10] of 414 ± 30 nM. The Ki [4, 12] was 2.49 ± 0.18 nM and the Ki [2, 11] was 618 ± 133 nM.

Source: patent publication US8063060B2, “R(−)-11-hydroxyaporphine derivatives and uses thereof” (The McLean Hospital Corporation, priority 2004, dated 2011)
